Patent US7138361B2, “Herbicidal heterocycles” (E. I. du Pont de Nemours and Company, priority 2000, dated 2006)

Legend:
Type in all cases: in vivo
[1] = tested on: Surinam grass (Brachiaria decumbens); assay: Test B postemergence; details: 13 to 15 days
Procedure, shortened: (§1)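 Greenhouse test: chemicals are formulated in a surfactant-containing non-phytotoxic solvent and applied either preemergence to planted seeds or postemergence to plants 2 to 18 cm tall. Response is rated visually versus controls after 13 to 15 days, 0 meaning no effect and 100 complete control.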

[2] = tested on: barnyardgrass (Echinochloa crus-galli); assay: Test B postemergence; details: 13 to 15 days
Procedure, shortened: as §1

[3] = tested on: blackgrass (Alopecurus myosuroides); assay: Test B postemergence; details: 13 to 15 days
Procedure, shortened: as §1

[4] = tested on: cocklebur (Xanthium strumarium); assay: Test B postemergence; details: 13 to 15 days
Procedure, shortened: as §1

corn (Zea mays) [5] = assay: Test B postemergence; details: 13 to 15 days
Procedure, shortened: as §1

[6] = tested on: crabgrass (Digitaria sanguinalis); assay: Test B postemergence; details: 13 to 15 days
Procedure, shortened: as §1

[7] = tested on: giant foxtail (Setaria faberii); assay: Test B postemergence; details: 13 to 15 days
Procedure, shortened: as §1

[8] = tested on: lambsquarters (Chenopodium album); assay: Test B postemergence; details: 13 to 15 days
Procedure, shortened: as §1

[9] = tested on: morning glory (Ipomoea hederacea); assay: Test B postemergence; details: 13 to 15 days
Procedure, shortened: as §1

[10] = tested on: pigweed (Amaranthus retroflexus); assay: Test B postemergence; details: 13 to 15 days
Procedure, shortened: as §1

[11] = tested on: velvetleaf (Abutilon theophrasti); assay: Test B postemergence; details: 13 to 15 days
Procedure, shortened: as §1

[12] = tested on: wheat (Triticum aestivum); assay: Test B postemergence; details: 13 to 15 days
Procedure, shortened: as §1

wild oat (Avena fatua) = assay: Test B postemergence; details: 13 to 15 days
Procedure, shortened: as §1

Sunflower [13] = assay: Test C preemergence; details: Rate 500 g/ha, scale 0 to 100
[14] = tested on: bermudagrass (Cynodon dactylon); assay: Test C preemergence
Procedure, shortened: (§2)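 Plants held in greenhouse for 12–14 days post-application are scored by eye against controls on a 0–100 control scale. Application timing: preemergence on sown seed, or postemergence on 2–18 cm plants.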

corn (Zea mays) [15] = assay: Test C preemergence
Procedure, shortened: as §2

[16] = tested on: giant foxtail (Setaria faberii); assay: Test C preemergence
Procedure, shortened: as §2

[17] = tested on: johnsongrass (Sorghum halepense); assay: Test C preemergence
Procedure, shortened: as §2

kochia (Kochia scoparia) = assay: Test C preemergence
Procedure, shortened: as §2

[18] = tested on: morningglory (Ipomoea hederacea); assay: Test C preemergence
Procedure, shortened: as §2

[19] = tested on: velvetleaf (Abutilon theophrasti); assay: Test C preemergence
Procedure, shortened: as §2

[20] = tested on: yellow nutsedge (Cyperus esculentus); assay: Test C preemergence
Procedure, shortened: as §2

Sunflower [21] = assay: Test C preemergence; details: Rate 250 g/ha, visual evaluation after 12 to 14 days
[22] = Rate 125 g/ha, scale 0 (no effect) to 100 (complete control)
[23] = Rate 500 g/ha, scale 0 to 100, 0 is no effect, 100 is complete control
[24] = Preemergence, Rate 500 g/ha, scale 0 to 100
[25] = Rate 62 g/ha, scale 0 to 100, 0 no effect, 100 complete control
[26] = preemergence, Rate 250 g/ha, visual evaluation after 12 to 14 days
[27] = preemergence, Rate 125 g/ha, scale 0 to 100, 0 no effect, 100 complete control

CC(C)(C)c1ccn(C2CCN(c3ccc(Cl)c(Br)c3)C2=O)n1 (stereo not shown) [Compound 56]
Plant response rating, Surinam grass [1, 22]: 0 | Plant response rating, Surinam grass [1, 23]: 0 | Plant response rating, Barnyardgrass [2, 22]: 0 | Plant response rating, Barnyardgrass [2, 23]: 0 | Plant response rating, Blackgrass [3, 22]: 0 | Plant response rating, Blackgrass [3, 23]: 0 | Plant response rating, Cocklebur [4, 22]: 0 | Plant response rating, Cocklebur [4, 23]: 0 | Plant response rating, Corn (corn (Zea mays) [5]; [22]): 0 | Plant response rating, Corn (corn (Zea mays) [5]; [23]): 0 | Plant response rating, Crabgrass [6, 22]: 0 | Plant response rating, Crabgrass [6, 23]: 0 | Plant response rating, Foxtail, Giant [7, 22]: 0 | Plant response rating, Foxtail, Giant [7, 23]: 0 | Plant response rating, Lambsquarters [8, 22]: 80 | Plant response rating, Lambsquarters [8, 23]: 90 | Plant response rating, Morningglory [9, 22]: 0 | Plant response rating, Morningglory [9, 23]: 10 | Plant response rating, Pigweed [10, 22]: 90 | Plant response rating, Pigweed [10, 23]: 90 | Plant response rating, Velvetleaf [11, 22]: 0 | Plant response rating, Velvetleaf [11, 23]: 0 | Plant response rating, Wheat [12, 22]: 0 | Plant response rating, Wheat [12, 23]: 0 | Plant response rating, Wild Oat (wild oat (Avena fatua); [22]): 0 | Plant response rating, Wild Oat (wild oat (Avena fatua); [23]): 0 | Plant response rating, Sunflower (Sunflower [13]): 0 | Plant response rating, Bermudagrass [14, 24]: 100 | Plant response rating, Bermudagrass [14, 25]: 40 | Plant response rating (0 to 100 where 0 is no effect and 100 is complete control), Bermudagrass [14, 26]: 90 | Plant response rating, Bermudagrass [14, 27]: 50 | Plant response rating, Corn (corn (Zea mays) [15]; [24]): 0 | Plant response rating, Corn (corn (Zea mays) [15]; [25]): 0 | Plant response rating (0 to 100), Corn (corn (Zea mays) [15]; [26]): 0 | Plant response rating, Corn (corn (Zea mays) [15]; [27]): 0 | Plant response rating, Foxtail, Giant [16, 24]: 90 | Plant response rating, Foxtail, Giant [16, 25]: 0 | Plant response rating, Foxtail, Giant [16, 27]: 0 | Plant response rating, Johnsongrass [17, 24]: 0 | Plant response rating, Johnsongrass [17, 25]: 0 | Plant response rating (0 to 100), Johnsongrass [17, 26]: 0 | Plant response rating, Johnsongrass [17, 27]: 0 | Plant response rating, Kochia (kochia (Kochia scoparia); [24]): 100 | Plant response rating, Kochia (kochia (Kochia scoparia); [25]): 50 | Plant response rating (0 to 100), Kochia (kochia (Kochia scoparia); [26]): 100 | Plant response rating, Kochia (kochia (Kochia scoparia); [27]): 70 | Plant response rating, Morningglory [18, 24]: 0 | Plant response rating, Morningglory [18, 25]: 0 | Plant response rating (0 to 100), Morningglory [18, 26]: 0 | Plant response rating, Morningglory [18, 27]: 0 | Plant response rating, Velvetleaf [19, 24]: 20 | Plant response rating (0 to 100), Velvetleaf [19, 26]: 0 | Plant response rating, Velvetleaf [19, 27]: 0 | Plant response rating, Nutsedge [20, 24]: 0 | Plant response rating, Nutsedge [20, 25]: 0 | Plant response rating (0 to 100), Nutsedge [20, 26]: 0 | Plant response rating, Nutsedge [20, 27]: 0 | Plant response rating (0 to 100), Sunflower (Sunflower [21]): 0
